Data set [1] has as its target T1, yeast α-glucosidase (Saccharomyces cerevisiae, UniProt P53341). Description: biochemical. In kind it is biochemical. To be noted: for diminished inhibitory activity relative to compound 11d: replacement of methoxy substituent of 11d.
Data set [2] addresses T1, yeast α-glucosidase. As to the kind of experiment: Kinetic study of α-glucosidase inhibition (Lineweaver–Burk plots). Particulars: for mechanism of α-glucosidase inhibition: Lineweaver–Burk plots, both Vmax and Km decreased; for Ki: Lineweaver–Burk secondary plot, substrate p-nitrophenyl-glucopyranoside 1–4 mM. In kind it is biochemical. From the text: Then, the Lineweaver-Burke plots were depicted using by the reciprocal of velocity and substrate concentration (Fig. 5).

Data set [3] relates to normal human dermal fibroblast (HDF) cell line. Description: In vitro cytotoxicity assay. In kind it is cell-based. Particulars: HDF cells, 50 μM concentration. The method, then: To assess of the cytotoxic effects of the new synthesized compounds, cytotoxicity of compounds 11d and 11n as the representative compounds was evaluated against the normal human dermal fibroblast (HDF) cell line.
Evaluation of cytotoxic effects of the synthesized compounds 11d and 11n was performed exactly based on our previous report.

[4] abbreviates: read-out: IC50 (anti-α-glucosidase activity).

Molecules are shown by their SMILES. Read-outs that look alike come from different tables or passages of the source.

T1 sequence (P53341 whole entry): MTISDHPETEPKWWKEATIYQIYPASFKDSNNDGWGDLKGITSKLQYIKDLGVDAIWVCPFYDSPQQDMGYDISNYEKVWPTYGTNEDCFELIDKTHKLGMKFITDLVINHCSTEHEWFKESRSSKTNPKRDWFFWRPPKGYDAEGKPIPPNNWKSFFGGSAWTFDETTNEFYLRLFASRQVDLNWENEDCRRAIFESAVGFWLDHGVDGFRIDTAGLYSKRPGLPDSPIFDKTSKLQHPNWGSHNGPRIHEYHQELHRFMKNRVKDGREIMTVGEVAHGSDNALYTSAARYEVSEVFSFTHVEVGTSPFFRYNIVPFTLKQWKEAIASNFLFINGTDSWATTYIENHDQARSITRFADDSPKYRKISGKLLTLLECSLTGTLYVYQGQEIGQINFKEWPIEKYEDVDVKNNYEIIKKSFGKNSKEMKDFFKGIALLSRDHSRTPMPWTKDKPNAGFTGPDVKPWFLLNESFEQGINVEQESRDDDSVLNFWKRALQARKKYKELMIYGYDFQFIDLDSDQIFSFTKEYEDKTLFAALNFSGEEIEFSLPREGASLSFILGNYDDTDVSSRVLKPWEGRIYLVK

The term melting point denotes the temperature of the solid-liquid transition. One may read the IC50 as the concentration at which inhibition is half-maximal. Compound `O=C(Cn1cc(COc2ccc(/C=N/NC(=O)c3cc4ccccc4[nH]3)cc2)nn1)Nc1ccccc1` [Compound 11a, (E)-2-(4-((4-((2-(1H-indole-2-carbonyl)hydrazono)methyl)phenoxy)methyl)-1H-1,2,3-triazol-1-yl)-N-phenylacetamide] registered a melting point of 194 to 196 °C. The IC50 at yeast α-glucosidase [1] (setting [4]) stood at 15.2 ± 0.18 µM.
By Ki is commonly meant the equilibrium dissociation constant of an inhibitor or competing ligand from its target. Higher therefore signals weaker binding. `Cc1ccccc1NC(=O)Cn1cc(COc2ccc(/C=N/NC(=O)c3cc4ccccc4[nH]3)cc2)nn1` [Compound 11b, (E)-2-(4-((4-((2-(1H-indole-2-carbonyl)hydrazono)methyl)phenoxy)methyl)-1H-1,2,3-triazol-1-yl)-N-(o-tolyl)acetamide]: at yeast α-glucosidase [2], the “mechanism of α-glucosidase inhibition” value is “uncompetitive inhibitors” and the Ki was found to be 8.5 µM. Besides, the 50% inhibitory concentration (IC50) on yeast α-glucosidase [1] (setting [4]) was 8.88 ± 0.07 µM.
As for `Cc1ccc(NC(=O)Cn2cc(COc3ccc(/C=N/NC(=O)c4cc5ccccc5[nH]4)cc3)nn2)cc1` [Compound 11c, (E)-2-(4-((4-((2-(1H-indole-2-carbonyl)hydrazono)methyl)phenoxy)methyl)-1H-1,2,3-triazol-1-yl)-N-(p-tolyl)acetamide], the half-maximal inhibitory concentration (IC50) on yeast α-glucosidase [1] (setting [4]) came to 19.12 ± 0.08 µM. Further, at yeast α-glucosidase [1], the “diminished inhibitory activity relative to compound 11d” value worked out at 3 folds.
For the compound `COc1ccc(NC(=O)Cn2cc(COc3ccc(/C=N/NC(=O)c4cc5ccccc5[nH]4)cc3)nn2)cc1` [Compound 11d, (E)-2-(4-((4-((2-(1H-indole-2-carbonyl)hydrazono)methyl)phenoxy)methyl)-1H-1,2,3-triazol-1-yl)-N-(4-methoxyphenyl)acetamide], in data set [3], the “cytotoxicity on normal cell line” value was “non-cytotoxic”. Also, on yeast α-glucosidase [2], the “mechanism of α-glucosidase inhibition” value is given as “uncompetitive inhibitors” and the affinity corresponds to a Ki of 6.3 µM. The “times more potent than acarbose” value at yeast α-glucosidase [1] (ratio of IC50 values vs acarbose) is listed as 118.8 times. Further, at yeast α-glucosidase [1] (setting [4]), the IC50 came out at 6.31 ± 0.03 µM.
The compound `O=C(Cn1cc(COc2ccc(/C=N/NC(=O)c3cc4ccccc4[nH]3)cc2)nn1)Nc1ccccc1Cl` [Compound 11e, (E)-2-(4-((4-((2-(1H-indole-2-carbonyl)hydrazono)methyl)phenoxy)methyl)-1H-1,2,3-triazol-1-yl)-N-(2-chlorophenyl)acetamide] registered a melting point above 250 °C. The same compound showed an IC50 at yeast α-glucosidase [1] of 26.97 ± 0.25 µM.
On to `O=C(Cn1cc(COc2ccc(/C=N/NC(=O)c3cc4ccccc4[nH]3)cc2)nn1)Nc1ccc(Cl)cc1` [Compound 11f, (E)-2-(4-((4-((2-(1H-indole-2-carbonyl)hydrazono)methyl)phenoxy)methyl)-1H-1,2,3-triazol-1-yl)-N-(4-chlorophenyl)acetamide], for which the melting point lay within 174 to 176 °C. For the same compound, the IC50 at yeast α-glucosidase [1] (setting [4]) came out at 9.53 ± 0.12 µM. Moreover, the “diminished inhibitory activity relative to compound 11d” value on yeast α-glucosidase [1] was 1.5 folds.
As for `O=C(Cn1cc(COc2ccc(/C=N/NC(=O)c3cc4ccccc4[nH]3)cc2)nn1)Nc1ccc(Br)cc1` [Compound 11g, (E)-2-(4-((4-((2-(1H-indole-2-carbonyl)hydrazono)methyl)phenoxy)methyl)-1H-1,2,3-triazol-1-yl)-N-(4-bromophenyl)acetamide], the IC50 on yeast α-glucosidase [1] (setting [4]) was determined as 49.89 ± 0.09 µM. The “diminished inhibitory activity relative to compound 11d” value on yeast α-glucosidase [1] was 8 folds.
The compound `Cc1cc(NC(=O)Cn2cc(COc3ccc(/C=N/NC(=O)c4cc5ccccc5[nH]4)cc3)nn2)ccc1[N+](=O)[O-]` [Compound 11h, (E)-2-(4-((4-((2-(1H-indole-2-carbonyl)hydrazono)methyl)phenoxy)methyl)-1H-1,2,3-triazol-1-yl)-N-(3-methyl-4-nitrophenyl)acetamide] gave a melting point of 200 to 202 °C. Moreover, the IC50 against yeast α-glucosidase [1] was 35.11 ± 0.07 µM.
In turn, `COc1cc(/C=N/NC(=O)c2cc3ccccc3[nH]2)ccc1OCc1cn(CC(=O)Nc2ccccc2)nn1` [Compound 11i, (E)-2-(4-((4-((2-(1H-indole-2-carbonyl)hydrazono)methyl)-2-methoxyphenoxy)methyl)-1H-1,2,3-triazol-1-yl)-N-phenylacetamide] came in with an IC50 against yeast α-glucosidase [1] of 11.3 ± 0.15 µM.
As to `COc1ccc(NC(=O)Cn2cc(COc3ccc(/C=N/NC(=O)c4cc5ccccc5[nH]4)cc3OC)nn2)cc1` [Compound 11j, (E)-2-(4-((4-((2-(1H-indole-2-carbonyl)hydrazono)methyl)-2-methoxyphenoxy)methyl)-1H-1,2,3-triazol-1-yl)-N-(4-methoxyphenyl)acetamide], the IC50 on yeast α-glucosidase [1] (setting [4]) turned out to be 24.19 ± 0.1 µM.
Take `COc1cc(/C=N/NC(=O)c2cc3ccccc3[nH]2)ccc1OCc1cn(CC(=O)Nc2ccc(Cl)cc2)nn1` [Compound 11k, (E)-2-(4-((4-((2-(1H-indole-2-carbonyl)hydrazono)methyl)-2-methoxyphenoxy)methyl)-1H-1,2,3-triazol-1-yl)-N-(4-chlorophenyl)acetamide]: the melting point was 184 to 186 °C. Besides, at yeast α-glucosidase [1] (setting [4]), the half-maximal inhibitory concentration (IC50) was 31.56 ± 0.12 µM.
For `COc1cc(/C=N/NC(=O)c2cc3ccccc3[nH]2)ccc1OCc1cn(CC(=O)Nc2cccc(Cl)c2Cl)nn1` [Compound 11l, (E)-2-(4-((4-((2-(1H-indole-2-carbonyl)hydrazono)methyl)-2-methoxyphenoxy)methyl)-1H-1,2,3-triazol-1-yl)-N-(2,3-dichlorophenyl)acetamide], the 50% inhibitory concentration (IC50) at yeast α-glucosidase [1] came out at 18.2 ± 0.81 µM.
As for `COc1cc(/C=N/NC(=O)c2cc3ccccc3[nH]2)ccc1OCc1cn(CC(=O)Nc2cc(Cl)cc(Cl)c2)nn1` [Compound 11m, (E)-2-(4-((4-((2-(1H-indole-2-carbonyl)hydrazono)methyl)-2-methoxyphenoxy)methyl)-1H-1,2,3-triazol-1-yl)-N-(3,5-dichlorophenyl)acetamide], the melting point lay within 247 to 249 °C. This compound registered an IC50 on yeast α-glucosidase [1] of 14.2 ± 0.21 µM.
Consider `COc1cc(/C=N/NC(=O)c2cc3ccccc3[nH]2)ccc1OCc1cn(CC(=O)Nc2ccc(Br)cc2)nn1` [Compound 11n, (E)-2-(4-((4-((2-(1H-indole-2-carbonyl)hydrazono)methyl)-2-methoxyphenoxy)methyl)-1H-1,2,3-triazol-1-yl)-N-(4-bromophenyl)acetamide], for which the “cytotoxicity on normal cell line” value in data set [3] was “non-cytotoxic”. At yeast α-glucosidase [2], the “mechanism of α-glucosidase inhibition” value is “uncompetitive inhibitors” and affinity was put at a Ki of 8.3 µM. Also, the IC50 at yeast α-glucosidase [1] (setting [4]) turned out to be 8.3 ± 0.16 µM.
Compound `COc1cc(/C=N/NC(=O)c2cc3ccccc3[nH]2)ccc1OCc1cn(CC(=O)Nc2cccc([N+](=O)[O-])c2Cl)nn1` [Compound 11o, (E)-2-(4-((4-((2-(1H-indole-2-carbonyl)hydrazono)methyl)-2-methoxyphenoxy)methyl)-1H-1,2,3-triazol-1-yl)-N-(2-chloro-3-nitrophenyl)acetamide] gave a melting point above 250 °C. Inhibition at yeast α-glucosidase [1] was half-maximal at 12.67 ± 0.05 µM (IC50).
